According to ChEMBL document CHEMBL1141027, “HY251, a novel cell cycle inhibitor isolated from Aralia continentalis, induces G1 phase arrest via p53-dependent pathway in HeLa cells” (2009):
Activity calls are given as the source filed them. The rule behind the calls is not given here.

Tests used:
HeLa [1] = assay: Cell cycle arrest in human HeLa cells assessed as accumulation at G1 phase at 100 uM treated 12 hrs after nocodazole challenge by flow cytometry; assay type: functional, cell-based; settings: TDE = time-dependent effect
HeLa [2] = assay: Cell cycle arrest in human HeLa cells assessed as accumulation at G2/M phase at 50 ng/ml after 12 hrs by flow cytometry; assay type: functional
HeLa [3] = assay: Cell cycle arrest in human HeLa cells assessed as accumulation at G1 phase at 50 ng/ml after 12 hrs by flow cytometry; assay type: functional
HeLa [4] = assay: Cell cycle arrest in human HeLa cells assessed as accumulation at G1 phase at 100 uM treated 12 hrs after nocodazole challenge measured after 6 hrs by flow cytometry; assay type: functional
HeLa [5] = assay: Cell cycle arrest in human HeLa cells assessed as accumulation at G2/M phase at 100 uM treated 12 hrs after nocodazole challenge measured after 6 hrs by flow cytometry; assay type: functional
HeLa [6] = assay: Cell cycle arrest in human HeLa cells assessed as accumulation at G1 phase at 100 uM treated 12 hrs after nocodazole challenge measured after 12 hrs by flow cytometry; assay type: functional
HeLa [7] = assay: Cell cycle arrest in human HeLa cells assessed as accumulation at G2/M phase at 100 uM treated 12 hrs after nocodazole challenge measured after 12 hrs by flow cytometry; assay type: functional
HeLa [8] = assay: Cell cycle arrest in human HeLa cells assessed as accumulation at G1 phase at 100 uM treated 12 hrs after nocodazole challenge measured after 24 hrs by flow cytometry; assay type: functional
HeLa [9] = assay: Cell cycle arrest in human HeLa cells assessed as accumulation at G2/M phase at 100 uM treated 12 hrs after nocodazole challenge measured after 24 hrs by flow cytometry; assay type: functional
[10] = biological target: Cyclin-dependent kinase 2 (Homo sapiens) (UniProt P24941); assay: Inhibition of CDK2 in human HeLa cells by immunoprecipitation kinase assay; assay type: cell-based
[11] = biological target: Cyclin-dependent kinase 4 (Homo sapiens) (UniProt P11802); assay: Inhibition of CDK4 in human HeLa cells by immunoprecipitation kinase assay; assay type: cell-based
[12] = biological target: Glycogen synthase kinase-3 beta (Homo sapiens) (UniProt P49841); assay: Inhibition of GSK3-beta in human HeLa cells by immunoprecipitation kinase assay; assay type: cell-based
HeLa [13] = assay: Decrease in cyclin D3 expression in human HeLa cells at 100 uM by Western blotting; assay type: functional, cell-based; settings: TDE = time-dependent effect
HeLa [14] = assay: Increase in p21CIP1 level in human HeLa cells at 100 uM by Western blotting; assay type: functional, cell-based; settings: TDE = time-dependent effect
HeLa [15] = assay: Increase in p27KIP1 level in human HeLa cells at 100 uM by Western blotting; assay type: functional, cell-based; settings: TDE = time-dependent effect
HeLa [16] = assay: Increase in hypophosphorylated pRb level in human HeLa cells at 100 uM by Western blotting; assay type: functional, cell-based; settings: TDE = time-dependent effect
[17] = biological target: Cellular tumor antigen p53 (Homo sapiens) (UniProt P04637); assay: Increase in p53-Ser15 phosphorylation in human HeLa cells at 100 uM by Western blotting; assay type: cell-based
HeLa [18] = assay: Increase in ataxia telangiectasia mutated gene expression in human HeLa cells after 12 hrs by RT-PCR relative to control; assay type: functional
HeLa [19] = assay: Increase in ataxia telangiectasia mutated gene expression in human HeLa cells after 24 hrs by RT-PCR relative to control; assay type: functional

Sequence of Cellular tumor antigen p53 (Homo sapiens) (P04637 whole entry, looked up): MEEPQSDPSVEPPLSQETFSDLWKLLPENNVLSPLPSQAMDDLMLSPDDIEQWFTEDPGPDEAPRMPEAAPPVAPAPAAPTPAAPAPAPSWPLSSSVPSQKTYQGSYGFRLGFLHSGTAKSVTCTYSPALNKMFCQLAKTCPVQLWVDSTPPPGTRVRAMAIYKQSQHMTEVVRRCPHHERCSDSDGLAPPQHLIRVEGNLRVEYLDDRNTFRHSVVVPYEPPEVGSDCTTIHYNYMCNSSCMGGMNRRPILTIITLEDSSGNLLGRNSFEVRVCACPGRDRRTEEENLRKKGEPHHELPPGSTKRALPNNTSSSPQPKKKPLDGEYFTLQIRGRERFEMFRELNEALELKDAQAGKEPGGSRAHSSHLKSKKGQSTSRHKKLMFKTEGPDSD
Sequence of Glycogen synthase kinase-3 beta (Homo sapiens) (P49841 whole entry, looked up): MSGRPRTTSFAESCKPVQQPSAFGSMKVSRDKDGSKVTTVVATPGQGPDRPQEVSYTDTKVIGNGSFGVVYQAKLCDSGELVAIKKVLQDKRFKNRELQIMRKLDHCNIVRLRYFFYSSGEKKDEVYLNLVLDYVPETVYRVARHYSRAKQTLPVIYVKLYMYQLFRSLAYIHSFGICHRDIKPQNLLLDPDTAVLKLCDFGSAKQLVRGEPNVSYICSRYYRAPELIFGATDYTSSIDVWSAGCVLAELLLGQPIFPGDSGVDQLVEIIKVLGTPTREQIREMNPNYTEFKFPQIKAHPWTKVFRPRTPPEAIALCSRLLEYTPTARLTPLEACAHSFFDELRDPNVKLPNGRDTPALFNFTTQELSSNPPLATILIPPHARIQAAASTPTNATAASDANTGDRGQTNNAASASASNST
Sequence of Cyclin-dependent kinase 4 (Homo sapiens) (P11802 whole entry): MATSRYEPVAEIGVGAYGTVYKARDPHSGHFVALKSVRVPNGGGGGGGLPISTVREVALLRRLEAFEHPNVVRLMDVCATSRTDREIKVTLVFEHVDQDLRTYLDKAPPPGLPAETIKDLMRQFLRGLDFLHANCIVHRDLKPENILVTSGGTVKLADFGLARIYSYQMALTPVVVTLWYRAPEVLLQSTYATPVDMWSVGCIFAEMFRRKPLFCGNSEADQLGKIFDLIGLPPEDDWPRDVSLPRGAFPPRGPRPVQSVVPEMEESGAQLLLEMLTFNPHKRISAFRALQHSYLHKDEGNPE

- Activity [10]: inactive
- Activity [11]: inactive
- Activity [12]: inactive
- Activity [17]: Active
Compound: C=CC1CC2(O)CC3(O)CCC=CC3C2(O)C1(O)CCC (centres undefined)
- Activity (HeLa [1]): tde
- Activity (HeLa [2]): 68%
- Activity (HeLa [3]): 4%
- Activity (HeLa [4]): 35%
- Activity (HeLa [5]): 37%
- Activity (HeLa [6]): 48%
- Activity (HeLa [7]): 21%
- Activity (HeLa [8]): 52%
- Activity (HeLa [9]): 11%
- Activity (HeLa [13]): tde
- Activity (HeLa [14]): tde
- Activity (HeLa [15]): tde
- Activity (HeLa [16]): tde
- fold change (FC) (HeLa [18]): 3.1
- fold change (FC) (HeLa [19]): 3.8
